Consider 27 molecules from ChEMBL document CHEMBL1155907, “Structure-activity relationship of flavonoids as influenza virus neuraminidase inhibitors and their in vitro anti-viral activities” (Bioorg Med Chem, 2008).

pIC50: −log10 of the molar value.

Data set [1] concerns the target T1, Neuraminidase (Influenza A virus, UniProt B4URF0).
Data set [2] has as its target T1, Neuraminidase. Also on record: species or system Influenza B virus.
For data set [3], the target named is T1, Neuraminidase. Also on record: species or system Influenza A virus (A/Puerto Rico/8/1934(H1N1)).
The next data set deals with Influenza A virus. The experiment in a line: Antiviral activity against Influenza A virus Jinan/15/90 H3N2 assessed as reduction of virus-induced cytopathic effect. The class given is functional, organism-based.
A short description of data set [4]: Cytotoxicity against MDCK cells by MTT assay. The class given is cell-based, Canis lupus familiaris. The note with it: dog.
Data set [5] in a line: Cytotoxicity against MDCK cells assessed as maximal non-cytotoxic concentration by MTT assay. The class given is cell-based, Canis lupus familiaris. The note with it: dog, read-out: MNCC.
Data set [6] can be described thus: Selectivity index, ratio of CC50 to MDCK cells to IC50 to Influenza A Jinan/15/90 H3N2 virus. The class given is functional.

T1 sequence (B4URF0 whole entry): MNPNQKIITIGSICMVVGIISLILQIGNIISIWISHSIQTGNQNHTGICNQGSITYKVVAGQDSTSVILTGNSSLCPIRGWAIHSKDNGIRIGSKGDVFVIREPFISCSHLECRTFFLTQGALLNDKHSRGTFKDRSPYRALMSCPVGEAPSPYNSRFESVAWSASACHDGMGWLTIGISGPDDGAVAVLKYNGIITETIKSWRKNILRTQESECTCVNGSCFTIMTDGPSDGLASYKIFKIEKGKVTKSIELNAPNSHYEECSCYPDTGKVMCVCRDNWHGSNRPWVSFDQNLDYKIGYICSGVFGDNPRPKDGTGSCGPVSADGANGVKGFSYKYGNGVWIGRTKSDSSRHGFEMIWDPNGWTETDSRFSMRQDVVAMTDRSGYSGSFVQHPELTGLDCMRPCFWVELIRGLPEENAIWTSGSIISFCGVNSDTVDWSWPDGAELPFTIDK

Regarding `O=C1/C(=C\c2ccccc2)Oc2cc(O)ccc21`, the pIC50 against Neuraminidase [1] is 4.13; against Neuraminidase [2] it was 4.06; against Neuraminidase [3], 4.14.
Take `O=C1/C(=C\c2ccc(O)cc2)Oc2cc(O)cc(O)c21`: the pIC50 was 4.65 on Neuraminidase [1], 4.60 at Neuraminidase [2], 4.59 against Neuraminidase [3] and below 3.13 with Influenza A virus. Moreover, the CC50 in data set [4] is above 741 µM. The MNTC in data set [5] was above 741 µM.
For `O=C1/C(=C\c2ccc(O)cc2)Oc2cc(O)ccc21`, the pIC50 at Neuraminidase [1] was 4.66; at Neuraminidase [2], 4.64; at Neuraminidase [3] it was 4.66; in the data set on Influenza A virus it was 4.80. Also, the “Ratio CC50/IC50” value in data set [6] is 9.64. Also, the half-maximal cytotoxic concentration (CC50) in data set [4] stood at 152 µM. Moreover, the MNTC in data set [5] was determined as 87.5 µM.
For the molecule `Oc1cc(O)c2c(c1)O[C@@H](c1ccc(O)c(O)c1)[C@@H](O)C2` [(+)-EPICATECHIN], the negative-log IC50 (pIC50) against Neuraminidase [1], against Neuraminidase [2] and at Neuraminidase [3] was below 4.00 throughout.
As to `O=c1cc(-c2ccc(O)cc2)oc2cc(O)cc(O)c12` [APIGENIN], the pIC50 against Neuraminidase [1] is 4.54; on Neuraminidase [2] it was 4.34; on Neuraminidase [3] it was 4.50; with Influenza A virus, 5.32. The “Ratio CC50/IC50” value in data set [6] stood at 8.35. Besides, in data set [4], it took 39.6 µM to reach half-maximal cytotoxicity (CC50). The MNTC in data set [5] is 7.63 µM.
In the case of `Oc1cc(O)c2c(c1)O[C@H](c1ccc(O)c(O)c1)[C@@H](O)C2` [CATECHIN], the negative logarithm of the IC50 (pIC50) at Neuraminidase [1], at Neuraminidase [2] and on Neuraminidase [3] was below 4.00 in each case.
In the case of `O=c1cc(-c2ccccc2)oc2cc(O)cc(O)c12` [CHRYSIN], the negative logarithm of the IC50 (pIC50) was 4.48 against Neuraminidase [1], 4.28 at Neuraminidase [2] and 4.34 at Neuraminidase [3].
With `O=c1c(-c2ccc(O)cc2)coc2cc(O)ccc12` [DAIDZEIN], the negative-log IC50 (pIC50) against Neuraminidase [1] was 4.58; against Neuraminidase [2] it was 4.33; at Neuraminidase [3], 4.43; in the data set on Influenza A virus, below 3.10. The molecule further had a half-maximal cytotoxic concentration (CC50) in data set [4] above 787 µM. In data set [5], the MNTC was above 787 µM.
`COc1ccc(-c2coc3cc(O)ccc3c2=O)cc1` [FORMONONETIN]: the pIC50 against Neuraminidase [1], on Neuraminidase [2] and on Neuraminidase [3] was below 4.00 each time.
For the molecule `O=c1cc(-c2ccc(O)c(O)c2)oc2cc(O[C@@H]3O[C@H](CO)[C@@H](O)[C@H](O)[C@H]3O)cc(O)c12` [GALUTEOLIN], the negative logarithm of the IC50 (pIC50) against Neuraminidase [1] was 4.28; on Neuraminidase [2], 4.23; on Neuraminidase [3], 4.32; in the data set on Influenza A virus, below 2.95. In addition, the CC50 in data set [4] was above 1120 µM. The MNTC in data set [5] was above 1120 µM.
Turning to `O=c1c(-c2ccc(O)cc2)coc2cc(O)cc(O)c12` [GENISTEIN], the pIC50 is 3.87 against Neuraminidase [1], 4.08 at Neuraminidase [2] and 4.11 at Neuraminidase [3].
In the case of `COc1ccc([C@@H]2CC(=O)c3c(O)cc(O[C@@H]4O[C@H](CO[C@@H]5O[C@@H](C)[C@H](O)[C@@H](O)[C@H]5O)[C@@H](O)[C@H](O)[C@H]4O)cc3O2)cc1O` [HESPERIDIN], the negative-log IC50 (pIC50) on Neuraminidase [1], on Neuraminidase [2] and against Neuraminidase [3] was below 4.00 each time.
For `COc1c(O)cc2oc(-c3ccc(O)cc3)cc(=O)c2c1O` [HISPIDULIN], the pIC50 was 4.59 against Neuraminidase [1], 4.48 at Neuraminidase [2], 4.33 at Neuraminidase [3] and 4.61 in the data set on Influenza A virus. In data set [6], the “Ratio CC50/IC50” value is listed as 6.98. In data set [4], this molecule displayed a CC50 of 172 µM. Further, the MNTC in data set [5] was 24.7 µM.
For `O=c1c(O)c(-c2ccc(O)cc2)oc2cc(O)cc(O)c12` [KAEMPFEROL], the pIC50 at Neuraminidase [1] was 4.42; on Neuraminidase [2] it was 4.33; on Neuraminidase [3], 4.23.
With `O=C1C[C@@H](c2ccc(O[C@@H]3O[C@H](CO)[C@@H](O)[C@H](O)[C@H]3O)cc2)Oc2cc(O)ccc21` [LIQUIRITIN], the pIC50 at Neuraminidase [1], against Neuraminidase [2] and against Neuraminidase [3] was below 4.00 each time.
For the molecule `O=c1cc(-c2ccc(O)c(O)c2)oc2cc(O)cc(O)c12` [LUTEOLIN], the negative logarithm of the IC50 (pIC50) was 4.49 against Neuraminidase [1], 4.27 on Neuraminidase [2], 4.47 at Neuraminidase [3] and 5.17 with Influenza A virus. For the same molecule, the “Ratio CC50/IC50” value in data set [6] is 1.82. In data set [4], the CC50 was 12.4 µM. Further, the MNTC in data set [5] stood at 7.2 µM.
As to `O=c1c(O)c(-c2cc(O)c(O)c(O)c2)oc2cc(O)cc(O)c12` [MYRICETIN], the pIC50 against Neuraminidase [1] is 4.34; against Neuraminidase [2], 4.12; at Neuraminidase [3] it was 4.08.
The corresponding values for `O=C1C[C@@H](c2ccc(O)cc2)Oc2cc(O)cc(O)c21` [NARINGENIN] are below 4.00, below 4.00 and below 4.00.
For `CCC(CC)O[C@@H]1C=C(C(=O)O)C[C@H](N)[C@H]1NC(C)=O` [OSELTAMIVIR CARBOXYLATE], the negative-log IC50 (pIC50) with Influenza A virus was 6.82. Moreover, the half-maximal cytotoxic concentration (CC50) in data set [4] is 17.1 µM. In addition, in data set [5], the MNTC is 1.02 µM.
`O=c1c(O)c(-c2ccc(O)c(O)c2)oc2cc(O)cc(O)c12` [QUERCETIN]: the negative logarithm of the IC50 (pIC50) is 4.06 against Neuraminidase [1], 4.17 on Neuraminidase [2] and 4.23 at Neuraminidase [3].
On the same counts, the results for `COc1cc(O)c2c(=O)c(O)c(-c3ccc(O)cc3)oc2c1` [RHAMNOCITRIN] are 4.08, 4.21 and 4.29.
Consider `NC(=O)c1ncn([C@@H]2O[C@H](CO)[C@@H](O)[C@H]2O)n1` [RIBAVIRIN], for which, in data set [6], the “Ratio CC50/IC50” value is listed as above 19.98. In addition, the pIC50 in the data set on Influenza A virus is 4.59. The molecule further displayed a CC50 in data set [4] above 512 µM.
In the case of `C[C@@H]1O[C@@H](OC[C@H]2O[C@@H](Oc3c(-c4ccc(O)c(O)c4)oc4cc(O)cc(O)c4c3=O)[C@H](O)[C@@H](O)[C@@H]2O)[C@H](O)[C@H](O)[C@H]1O` [RUTIN], the negative-log IC50 (pIC50) against Neuraminidase [1] is 4.06; against Neuraminidase [2], below 4.00; at Neuraminidase [3] it was 4.28.
Consider `O=C(O)[C@H]1O[C@@H](Oc2cc3oc(-c4ccc(O)cc4)cc(=O)c3c(O)c2O)[C@H](O)[C@@H](O)[C@@H]1O` [SCUTELLARIN], for which the negative logarithm of the IC50 (pIC50) against Neuraminidase [1] was 4.33; on Neuraminidase [2], 4.22; against Neuraminidase [3], 4.30.
On to `O=c1c(-c2ccc(O[C@@H]3O[C@H](CO)[C@@H](O)[C@H](O)[C@H]3O)cc2)coc2cc(O)cc(O)c12` [SOPHORICOSIDE], for which the pIC50 on Neuraminidase [1], against Neuraminidase [2] and on Neuraminidase [3] was below 4.00 in each case.
With `O=C1/C(=C/c2ccc(O)c(O)c2)Oc2cc(O)ccc21` [SULFURETIN], the negative logarithm of the IC50 (pIC50) on Neuraminidase [1] was 4.29; against Neuraminidase [2] it was 4.44; on Neuraminidase [3], 4.53; in the data set on Influenza A virus it was below 5.04. Further, the 50% cytotoxic concentration (CC50) in data set [4] turned out to be 27.4 µM. Further, the MNTC in data set [5] amounted to 9.15 µM.
As for `O=c1cc(-c2ccc(O)cc2)oc2c([C@@H]3O[C@H](CO)[C@@H](O)[C@H](O)[C@H]3O)c(O)cc(O)c12` [VITEXIN], the figures for the pIC50 against Neuraminidase [1], on Neuraminidase [2] and against Neuraminidase [3] were 4.35, 4.30 and 4.33, respectively.
